Measurements published in the NIST ThermoML archive (doi:10.1016/j.fluid.2017.10.003).
Numbers after ± are expanded uncertainties.

Conditions: 101.33 kPa, Liquid

viscosity (293.15 K) [mPa·s]	viscosity (298.15 K) [mPa·s]	viscosity (303.15 K) [mPa·s]	viscosity (308.15 K) [mPa·s]	viscosity (313.15 K) [mPa·s]	viscosity (318.15 K) [mPa·s]	viscosity (323.15 K) [mPa·s]	viscosity (328.15 K) [mPa·s]	viscosity (333.15 K) [mPa·s]	viscosity (338.15 K) [mPa·s]	viscosity (343.15 K) [mPa·s]	viscosity (348.15 K) [mPa·s]	viscosity (353.15 K) [mPa·s]	viscosity (358.15 K) [mPa·s]	viscosity (363.15 K) [mPa·s]	SMILES
129 ± 50	98.49 ± 27	71.9 ± 11	56.34 ± 2.8	44.88 ± 4.3	36.53 ± 3.5	30.1 ± 2.9	24.92 ± 2.4	21 ± 2.1	18.98 ± 1.9	16.3 ± 1.6	13.96 ± 1.4	12.1 ± 1.3	10.57 ± 1.2	9.3 ± 1.1	NCCO.O=CO [2-hydroxyethylammonium formate]
2619	1796	1260	904.36	596.88	445.06 ± 200	335.81 ± 130	256.28 ± 85	199.67 ± 56	153.8 ± 35	122.53 ± 22	98.65 ± 15	80.46 ± 11	66.2 ± 8.7	53.33 ± 8	CCCC(=O)[O-].[NH3+]CCO [2-hydroxy ethylammonium butanoate]
3073	1974	1306	896.3	624.5	363.72 ± 150	271.13 ± 93	203.65 ± 58	159.15 ± 37	123.69 ± 23	98.5 ± 14	79.76 ± 8.3	65.27 ± 5.6	52.72 ± 4.6	43.69 ± 5	CC(=O)[O-].[NH3+]CCO [2-hydroxyethylammonium acetate]
